Measurements reported in ChEMBL document CHEMBL3232772, “Spiramine derivatives induce apoptosis of Bax(-/-)/Bak(-/-) cell and cancer cells” (Bioorg Med Chem Lett, 2014).
The source made the active and inactive calls. No cut-off for these calls is given here.

Experiments:
MEF [1] = assay: Induction of apoptosis in Bax(-/-)/Bak(-/-) MEF after 48 hrs; type: functional, cell-based; conditions: Mus musculus
MEF [2] = assay: Induction of apoptosis in Bax(-/-)/Bak(-/-) MEF at 10 uM after 24 to 48 hrs; type: functional, cell-based; conditions: Mus musculus
SW480 [3] = assay: Induction of apoptosis in human SW480 cells assessed as late apoptotic cells at 20 uM after 24 hrs using annexin V-FITC and propidium iodide staining by flow cytometry (reference value: 1.0%); type: functional
SW480 [4] = assay: Induction of apoptosis in human SW480 cells assessed as early apoptotic cells at 20 uM after 24 hrs using annexin V-FITC and propidium iodide staining by flow cytometry (reference value: 1.4%); type: functional
SW480 [5] = assay: Induction of apoptosis in human SW480 cells assessed as activation of caspase activity at 20 uM after 24 hrs by CASPACE-FITC staining (reference value: 6.2%); type: functional
MEF [6] = assay: Induction of apoptosis in Bax(-/-)/Bak(-/-) MEF assessed as late apoptotic cells at 20 uM after 24 hrs using annexin V-FITC and propidium iodide staining by flow cytometry (reference value: 3.3%); type: functional, Mus musculus
MEF [7] = assay: Induction of apoptosis in Bax(-/-)/Bak(-/-) MEF assessed as early apoptotic cells at 20 uM after 24 hrs using annexin V-FITC and propidium iodide staining by flow cytometry (reference value: 0.6%); type: functional, Mus musculus
MEF [8] = assay: Induction of apoptosis in Bax(-/-)/Bak(-/-) MEF assessed as activation of caspase activity at 20 uM after 24 hrs by CASPACE-FITC staining (reference value: 12.2%); type: functional, Mus musculus
HL-60 = assay: Cytotoxicity against human HL60 cells after 48 hrs by MTT assay; type: functional, cell-based; conditions: HL-60, 48 h
SMMC-7721 = assay: Cytotoxicity against human SMMC7721 cells after 48 hrs by MTT assay; type: functional, cell-based; conditions: SMMC-7721, 48 h
A549 = assay: Cytotoxicity against human A549 cells after 48 hrs by MTT assay; type: functional, cell-based; conditions: A549, 48 h
MCF7 = assay: Cytotoxicity against human MCF7 cells after 48 hrs by MTT assay; type: functional, cell-based; conditions: MCF7, 48 h
SW480 [9] = assay: Cytotoxicity against human SW480 cells after 48 hrs by MTT assay; type: functional, cell-based; conditions: SW480, 48 h
SW480 [10] = assay: Induction of apoptosis in human SW480 cells assessed as late apoptotic cells at 10 uM after 24 hrs using annexin V-FITC and propidium iodide staining by flow cytometry (reference value: 1.0%); type: functional
SW480 [11] = assay: Induction of apoptosis in human SW480 cells assessed as early apoptotic cells at 10 uM after 24 hrs using annexin V-FITC and propidium iodide staining by flow cytometry (reference value: 1.4%); type: functional
SW480 [12] = assay: Induction of apoptosis in human SW480 cells assessed as activation of caspase activity at 10 uM after 24 hrs by CASPACE-FITC staining (reference value: 6.2%); type: functional
MEF [13] = assay: Induction of apoptosis in Bax(-/-)/Bak(-/-) MEF assessed as late apoptotic cells at 10 uM after 24 hrs using annexin V-FITC and propidium iodide staining by flow cytometry (reference value: 3.3%); type: functional, Mus musculus
MEF [14] = assay: Induction of apoptosis in Bax(-/-)/Bak(-/-) MEF assessed as early apoptotic cells at 10 uM after 24 hrs using annexin V-FITC and propidium iodide staining by flow cytometry (reference value: 0.6%); type: functional, Mus musculus
MEF [15] = assay: Induction of apoptosis in Bax(-/-)/Bak(-/-) MEF assessed as activation of caspase activity at 10 uM after 24 hrs by CASPACE-FITC staining (reference value: 12.2%); type: functional, Mus musculus
[16] = Cytotoxicity against human MCF7/ADR cells after 48 hrs by MTT assay; type: functional, cell-based; conditions: NCI/ADR-RES
NCI/ADR-RES = assay: Resistant factor, ratio of IC50 for human MCF7/ADR cells to IC50 for human MCF7 cells; type: functional

| SMILES | IC50 (MEF [1]) [µM] | Activity (MEF [2]) | Activity (SW480 [3]) [%] | Activity (SW480 [4]) [%] | Activity (SW480 [5]) [%] | Activity (MEF [6]) [%] | Activity (MEF [7]) [%] | Activity (MEF [8]) [%] | IC50 (HL-60) [µM] | IC50 (SMMC-7721) [µM] | IC50 (A549) [µM] | IC50 (MCF7) [µM] | IC50 (SW480 [9]) [µM] | other results |
| --- | --- | --- | --- | --- | --- | --- | --- | --- | --- | --- | --- | --- | --- | --- |
| C=C1C(=O)[C@]23CC[C@H]1C[C@H]2[C@@]12CCC[C@@](C)(CN(CCO)C1)[C@H]2CC3=O | 4.52 | Active | 13.3 | 10.9 | 10.9 | 52.2 | 11.7 | 66.6 | 14.3 | 15.2 | 9.24 | 15.7 | 11.8 | – |
| C=C1C(=O)[C@]23CC[C@H]1C[C@H]2[C@@]12CCC[C@@](C)(CN(CCO)C1)[C@H]2C(=C)C3=O | 1.81 | Active | 44.2 | 13.1 | 29.8 | 76.8 | 28.2 | 97.1 | 6.61 | 11.5 | 6.5 | 3.57 | 2.81 | – |
| C=C1C(=O)[C@]23CC[C@H]1C[C@H]2[C@@]12CCC[C@@](C)(C(=O)N4CCO[C@H]41)[C@H]2C[C@H]3O | 3.38 | Active | 40.1 | 46.7 | 60.1 | 68.3 | 21.7 | 93.2 | 2.73 | 2.63 | 3.09 | 1.12 | 2.81 | Activity (SW480 [10]): 8.6%; Activity (SW480 [11]): 25.5%; Activity (SW480 [12]): 12.1%; Activity (MEF [13]): 2.1%; Activity (MEF [14]): 8.6%; Activity (MEF [15]): 14.3%; IC50 [16]: 8.8 µM; Ratio IC50 (NCI/ADR-RES): 1.66 |
| C=C1C(=O)[C@@]23CC[C@@H](C[C@H]2[C@@]24CCC[C@@](C)(CN(CCO)C2)[C@@H]14)C(=C)[C@@H]3O | – | Active | – | – | – | – | – | – | 4.82 | 1.48 | 3.04 | 6.98 | 9.84 | – |
| C=C1C(=O)[C@]23CC[C@H]1C[C@H]2[C@@]12CCC[C@@]4(C)CN(CCO)[C@H]1O[C@@H]3C[C@H]42 | – | Active | – | – | – | – | – | – | 19.3 | 23.6 | 18.6 | 10.3 | 14 | – |
| C=C1C(=O)[C@]23CC[C@H]1C[C@H]2[C@@]12CCC[C@@]4(C)C(=O)N(CCO)[C@H]1O[C@@H]3C[C@@H]24 | – | Active | – | – | – | – | – | – | 18.6 | 18.4 | 17.9 | 13.2 | 12.4 | – |
| C=C1C(=O)[C@]23CC[C@H]1C[C@H]2[C@@]12CCC[C@@]4(C)C(=O)N[C@H]1O[C@@H]3C[C@@H]24 | – | Active | – | – | – | – | – | – | 18.6 | 15.7 | 19 | 15.7 | 14.2 | IC50 [16]: 28.3 µM; Ratio IC50 (NCI/ADR-RES): 1.4 |
| C=C1C(=O)[C@]23CC[C@H]1C[C@H]2[C@@]12CCC[C@@](C)(CN(CCO[Si](C)(C)C(C)(C)C)C1)[C@H]2C(=C)C3=O | – | Active | – | – | – | – | – | – | 1.39 | 2.63 | 1.55 | 2.9 | 2.78 | – |
| C=C1C(=O)[C@]23CC[C@H]1C[C@H]2[C@@]12CCC[C@@](C)(COC1=O)[C@H]2C[C@H]3O | 1.74 | Active | – | – | – | – | – | – | 6.36 | 3.96 | 3.22 | 3.25 | 3.58 | – |
| C=C1C(=O)[C@]23CC[C@H]1C[C@H]2[C@@]12CCC[C@@](C)(CN(CCO)C1)[C@H]2C[C@H]3O | – | Active | – | – | – | – | – | – | 7.95 | 11.2 | 9.92 | 16.6 | 14.4 | – |
| COc1cccc2c1C(=O)c1c(O)c3c(c(O)c1C2=O)C[C@@](O)(C(=O)CO)C[C@@H]3O[C@H]1C[C@H](N)[C@H](O)[C@H](C)O1 [DOXORUBICIN] | – | – | – | – | – | – | – | – | – | – | – | 0.077 | – | IC50 [16]: 68.4 µM; Ratio IC50 (NCI/ADR-RES): 888.75 |
| C=C1C(=O)[C@]23CC[C@H]1C[C@H]2[C@@]12CCC[C@@]4(C)C5OCCN5[C@H]1O[C@@H]3C[C@@H]24 (stereo partly drawn) | 2.24 | Active | 15.9 | 16.9 | 18.2 | 86.2 | 1.9 | 87.8 | 1.34 | 1.04 | 2.03 | 0.67 | 1.97 | – |
